Key:
[1] = Metabolic stability in mouse liver microsomes; assay type: in vitro ADME; conditions: female, CD-1, pooled liver microsomes, read-out: metabolic stability (mouse) t1/2 (converted)
Method: (§3) Human and/or mouse microsomal degradation was determined using multiple time points to monitor the rate of disappearance of the parent compound during incubation following the method described by Di et al.[51],[52] […] The metabolic stability was evaluated via the half-life from the least-squares fit of the multiple time points based on first-order kinetics. Waters ACQUITY-TOQ UPLC-MS-MS-UV system was used to analyze the samples as established in various MS core facilities.[51],[52]

BJ = experiment: CellTiter-Glo 72 h cytotoxicity assay, BJ normal fibroblasts; assay type: cell-based; conditions: Homo sapiens, CTG assay, noncancerous fibroblasts
Method: (§1) The following stable human cell lines were utilized for this study: SUM149 and MDA-MB-231 (breast cancer models) and BJ (human normal fibroblast, foreskin). Cells were purchased from BioIVT or the American Type Culture Collection (ATCC). Cells were cultured in F-12-Nutrient Mixture (SUM149), DMEM (MDA-MB-231), or EMEM (BJ) medium supplemented with 10% fetal bovine serum (Sigma-Aldrich, St. Louis, MO) and 2 mmol of L-glutamine, at 37 °C in a humidified 5% CO2 atmosphere (no antibiotics) as indicated by the manufacturer. Cell cultures were grown to 80–90% confluence before use, except where otherwise specified. Our cell lines are authenticated every 3 months using the CellCheck service (Idexx BioResearch, Westbrook, ME). Cells were tested for mycoplasma prior to use (MycoAlert detection Kit Lonza LT07–318) and discarded if they tested positive. A cell proliferation assay was performed using the CellTiter-Glo (Promega Corp., Madison, WI) luminescent cell viability assay kit. Cells were detached with trypsin, counted, and seeded in white polystyrene flat-bottom sterile 96-well tissue culture-treated plates (catalog no. 3917, Corning, Glendale, Arizona) and incubated overnight at 37 °C. MDA-MB231, SUM149, and BJ cells were seeded into 96-well plates at concentrations experimentally determined (0.4 × 10^4, 0.25 × 10^4, and 0.3 × 10^4 cells per well, respectively) to ensure logarithmic growth during the duration of the experiment and to prevent adverse effects on cell growth by DMSO exposure. The plates were incubated for 12 h before treatment. Stock solutions of test compounds (10 mM in DMSO) in nine 3-fold serial dilutions were dispensed. The final concentration of DMSO was 0.3% (v/v) in each well. The positive control used was staurosporine (10 μM) as the kill-all control, and the negative control used is DMSO as we have published. Staurosporine is a potent alkaloid inducer of various cell death modalities but primarily apoptosis, making it a reliable positive control for viability assays. The plates were incubated for 72 h and then quenched with CTG at 50 μL per well at RT. Plates were then incubated at RT for 20 min and centrifuged at 1000 rpm for 1 min. Luminescence was read on a CLARIOstar Plus plate reader (BMG LabTech, Ortenberg, Germany).
(§2) Three or four technical replicates were conducted for each experimental condition, and a minimum of three independent experiments were conducted for each assay. In vitro ADME values were expressed as mean ± standard deviation (SD) of at least three independent experiments. One-way analysis of variance (ANOVA) was adopted for comparisons among groups using the GraphPad Prism 10.2.3 (GraphPad Software, San Diego, CA). A difference of P < 0.05 was considered as statistically significant. Data are expressed as mean ± SEM. For CTG, the mean luminescence of each experimental treatment group was normalized as a percentage of the mean intensity of untreated controls (DMSO as vehicle). EC50 values were calculated from dose–response curve fitting via nonlinear regression using GraphPad Prism 10.2.3 (GraphPad Software, San Diego, CA). A therapeutic index (TI) between normal and tumor cell lines can be determined (EC50 non-neoplastic cell line BJ)/(EC50 cancer cell line). In vivo studies were analyzed using mixed-effects regression models to compare the changes in tumor volume over time by treatment group. Tumor volume reduction was compared using ANOVA with repeated measures, and all data was considered significant when P < 0.05.

[2] = Metabolic stability in human liver microsomes; assay type: in vitro ADME; conditions: both sexes, pooled liver microsomes, read-out: metabolic stability (human) t1/2 (converted)
Method: as §3

MDA-MB-231 = experiment: CellTiter-Glo 72 h cytotoxicity assay, MDA-MB-231; assay type: cell-based; conditions: Homo sapiens, CTG assay, read-out: MDA-MB231 (EC50)
Method: as §1, §2

[3] = Parallel Artificial Membrane Permeability Assay (PAMPA); assay type: in vitro ADME
Method: This assay is to analyze the permeability of various drugs/compounds on a homogeneous artificial lipid membrane using the normal Double-Sink PAMPA protocol. Then, 6 μL of 10 mM compound solution in DMSO was applied to each well in a stock plate. Compounds were diluted 200-fold in PBS buffer (pH = 7.4). 180 μL of diluted solution was added to a donor plate (pION INC, Woburn, MA). A filter plate (acceptor plate; pION INC, Woburn, MA) containing 200 μL of acceptor sink buffer (ASB, pH = 7.4; pION INC, Woburn, MA) was then placed over the donor plate. The plates were incubated at room temperature for 0.5 h with magnetic stirring in individual wells to allow the compounds to cross the membrane. Fractions were collected from both the donor plate and the acceptor plate, and the concentrations were assessed by UV spectrometry (230–500 nm). Sample preparation, sample analysis, and data processing are fully automated using a Biomek FX ADME-TOX workstation and the UV-based PAMPA Evolution-96 Command Software. All compounds were tested in triplicates.

[4] = Simulated gastric fluid (SGF) stability; assay type: in vitro ADME; conditions: simulated gi fluid; for half-life: SGF stability t1/2
Method: The simulated gastric fluid (SGF) assay is an important element in determining the overall drug-like potential of compounds.[29],[30] Anecdotal studies of oral consumption of extracts by humans indicate positive outcomes of digestion of mixtures of EP and its related natural products found in G. lucidum.[2] […] Chlorambucil was used as positive control as previously described.[32],[33] […] Caco-2 permeability studies were conducted to validate and to provide information on EP’s ability to cross the intestinal barrier and its potential for interactions with drug transporters.[36]−[39] The rate of transport in both directions (A-B and B-A) across the cell monolayer enables an efflux ratio (B-A/A-B) to be determined, enabling us to determine if a compound undergoes active efflux (efflux ratio ≥2).

Row | SMILES | half-life [1] | EC50 (BJ) | half-life [2] | EC50 (MDA-MB-231) | Papp at 0.5 h, 50 µM ([3]; PAMPA, pH 7.4, pH 7.40, read-out: PAMPA Avg Pe) | PAMPA %R ([3]; pH 7.40) | PAMPA Avg Pe ([3]; pH 7.40) | half-life [4] | PAMPA Avg Pe ([3]; PAMPA, 0.5 h, 50 µM, pH 7.4) | SGF stability t1/2 [4]
1 | CC(C)[C@@H](C)/C=C/[C@@H](C)[C@H]1CC[C@@H]2[C@]1(C)CC[C@H]1[C@]23C=C[C@]2(C[C@@H](O)CC[C@]12C)OO3 [Compound 2, Ergosterol peroxide] | 5.63 h | > 50 µM | 2.74 h | 18 µM | 65.3 ×10⁻⁶ cm/s | 81.90% | 65.31 10–6 cm/s | > 48 h |  | 
2 | CC(C)[C@@H](C)/C=C/[C@@H](C)[C@H]1CC[C@@H]2[C@]1(C)CC[C@H]1[C@]23C=C[C@]2(CC(=O)CC[C@]12C)OO3 [Compound 3] | 0.9 h | > 50 µM | 0.83 h | 7 µM |  |  |  | ~9 h | 00 10–6 cm/s | 8.92 h
